Data reported in patent US12281123B2, “Benzoxazinone compounds as KLK5/7 dual inhibitors” (MOLECULAR SKIN THERAPEUTICS, INC., priority 2019, dated 2025).
Marks after values point to notes of the source that are not given here.

Columns and labels:
Assay type in all cases: biochemical
[1] = test system: KLK proteases in human skin extract; experiment: Inhibition of protease activity in human skin extract; details: human skin extract; for Rate in Skin Assay: compound concentration not given
Experimental: Materials: The peptide substrates PS-01 (YRSR-pNA Tyr-Arg-Ser-Arg-pNA) (SEQ ID NO. 1) and PS-02 (Lys-His-Leu-Tyr-pNA) (SEQ ID NO. 2) were synthesized by Zamboni Chemical Solutions (Montreal, Canada). Human epidermis samples were obtained from Biopredic (Saint-Grégoire, France). The BCA protein assay kit was bought from VWR.
Preparation of skin extract: The epidermis was frozen and lyophilized. A sample of 15 mg lyophilized epidermis was immersed in 1 mL high salt buffer (100 mM Tris, 5 mM EDTA, 2M KCl, pH 8), frozen twice in dry ice and thawed. After incubation overnight at 4° C. and addition of six 2.4 mm metal beads, the sample was homogenized in a Bertin Precellys Homogenizer (Atkinson, NH) three times at […] for 20 seconds each and cooled in between for 30 seconds. After centrifugation at maximal speed in a desktop minifuge, the protein concentration of the supernatant was determined by BCA assay (˜0.5 mg/mL).
Inhibition of protease activity in skin extract: Stock solutions of 200, 66, 22 and 0 μM of the tested compound in DMSO were prepared. Substrate stocks of 1100 μM PS-01 and PS-02 were prepared by dissolving in water. The wells of a 384 well plate was filled with 50 μL 2× assay buffer (see above) and then 45 μL substrate stock and 5 μL of the test compound were added. The reaction was started by addition of 10 μL skin extract for the substrate PS-02 and 5 μL for the substrate PS-01. The substrate hydrolysis was monitored in multi-well plate reader at 405 nm.
Chromogenic substrate cleavage progressions of Compounds 1.001, 1.002, and 14 were tested according to human stratum corneum extract assay of Example 4 using KLK5 and KLK7 preferred chromogenic peptide substrates (PS-01 and PS-02). The proteolytic cleavage of KLK5 selective substrate in skin extract by Compounds 1.001, 1.002, and 14 are compared and shown in FIGS. 4A-4D. NSK refers to extract from skin freshly prepared; and OSK refers to extract from skin post freeze thaw.

Recombinant human KLK5 = target: T1, Recombinant human KLK5 (Homo sapiens, UniProt Q9Y337); experiment: Recombinant KLK5 chromogenic IC50 assay; details: Table 2; assay protocol of Example 3; read-out: Recombinant KLK5 enzyme (IC50)
T1 construct: purchased SpeedBio (Gaithersburg, MD) / SpeedBioSystems; host or cells: HEK293
T1 sequence (Q9Y337 23-293): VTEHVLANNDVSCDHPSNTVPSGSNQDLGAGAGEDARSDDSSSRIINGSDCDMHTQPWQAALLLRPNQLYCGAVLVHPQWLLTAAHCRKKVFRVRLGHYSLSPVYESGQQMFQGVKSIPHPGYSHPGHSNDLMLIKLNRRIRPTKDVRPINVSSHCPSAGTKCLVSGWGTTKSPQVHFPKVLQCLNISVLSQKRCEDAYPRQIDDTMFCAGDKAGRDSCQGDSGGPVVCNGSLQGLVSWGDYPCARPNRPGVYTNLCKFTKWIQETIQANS
Excerpt: (§1) Human Kallikrein Proteins: Recombinant human KLK5 expressed in HEK293 was obtained from SpeedBio (Gaithersburg, MD). Recombinant proenzyme KLK-7 and recombinant proenzyme KLK-14 both expressed in mouse myeloma cells were from R&D Biosystems (Minneapolis, MN). Plasmin and thrombin were from Haematologic Technologies (Essex Junction, VT). Trypsin and Chymotrypsin were bought from Worthington Biochemical Corporation (Lakewood, NJ) and plasma kallikrein was from Prospec (East Brunswick, NJ). Neutrophil Elastase was obtained from Innovative Research (Peary Court, MI). Bovine recombinant enterokinase expressed in E. coli was bought from Sigma (St. Louis, MI). Matriptase expressed in E. coli was obtained from Enzo Life Sciences (Farmingdale, NY). The control inhibitors Nafamostat mesylate was from Sigma (St. Louis, MI) and (2-(2-fluorophenyl)-5,6,7,8-tetrahydro-4H-benzo[4,5]thieno[2,3-d][1,3]oxazin-4-one was from Interbioscreen (Moskow, Russia).
(§2) Substrates: S-2288 (D-Ile-Pro-Arg-pNA), CS-PSA (MeO-Suc-Arg-Pro-Tyr-pNA), S-2266 (H-D-Val-Leu-Arg-pNA) and S-2288 (H-D-Ile-Pro-Arg-pNA) were bought from Diapharma (West Chester, OH). MeOSuccAla-Ala-Pro-Val-pNA was purchased from Sigma (St Louis, MI). The substrates were dissolved in water at 10 mM and were frozen in aliquots at −20° C.
(§3) Assays: All assays were performed in 384 well polystyrene plates coated overnight with 0.1% Tween 20 at 4° C. The plates were then washed twice with 100 μL water and dried. For the determination of IC50 values, the inhibitors were diluted in serial dilutions of 1:3 intervals into pure DMSO at 50 fold of the intended final concentrations in the assays. Usually eight inhibitor dilutions and one DMSO control were prepared. The substrates were diluted into water at 2.2-fold the final concentration in the assay mixture. The wells of the plate were filled with 50 μL of the enzyme diluted in 2× assay buffer (100 mM Tris, 200 mM NaCl, 0.2% PEG, 0.01% Tween, 2 mM EDTA, pH 8.0) at twofold the intended concentration. Then 5 μL DMSO, 2.2 μL inhibitor and 45 μL substrate were added to start the reaction. The assays were monitored at 37° C. in a multi well plate reader at a wavelength of 405 nm (Molecular Devices, San Jose, CA) for 1 h. The tool inhibitor, nafamostat, was used as a control for trypsin, thrombin, KLK-5 and KLK-14 at 10 μM maximal concentration and (2-(2-fluorophenyl)-5,6,7,8-tetrahydro-4H-benzo[4,5]thieno[2,3-d][1,3]oxazin-4-one for KLK-7 at 5 μM.
(§4) The table summarizes assay conditions for the individual enzymes:
(§5) Data analysis: The progress curves of substrate hydrolysis were analyzed by linear regression of the final 20 min of the reaction. Fit of the dose response of the resulting rates to the following equation yielded the IC50:
(§6) [formula] with 1) c: the background rate at the highest inhibitor concentration; 2) d: the rate of the control reaction; 3) IC50: the IC50 of the inhibitor; 4) x: the inhibitor concentration; and 5) b: the slope.
(§7) Proteases: KLK5 (SpeedBioSystems); KLK7 (R&Dsystems) was activated with enterokinase (2 hours, 37° C.) prior to assay; Trypsin (Sigma Aldrich); Chymotrypsin (Sigma Aldrich); Factor Xa (Haematologic Technologies); Plasmin (Haematologic Technologies); KLK14 (R&Dsystems) was activated with enterokinase (1 hour, 37° C.) prior to assay; Thrombin (Haematologic Technologies); Neutrophil Elastase (Athens Research&Technology); and KLK1 (Prospec).

KLK7 = target: T2, KLK7 (Homo sapiens, UniProt P49862); experiment: Recombinant KLK7 chromogenic IC50 assay; details: Table 2; assay protocol of Example 3; read-out: Recombinant KLK7 enzyme (IC50)
T2 construct: purchased R&D Biosystems (Minneapolis, MN) / R&Dsystems; host or cells: mouse myeloma cells
Excerpt: as §1, §2
Activation of KLK-7 and KLK-14: 150 μL 8 μM solution of the proenzymes of KLK-7 or KLK-14 in 50 mM Tris, 10 mM CaCl2, 150 mM NaCl, 0.05% (w/v) Brij-35, pH 7.5 were mixed with 150 μL 10 μg/mL bovine enterokinase in the same buffer and incubated for 2 h for KLK-7 and 1 h for KLK-14 at 37° C. After the incubation period, activation was stopped by addition of 6 μL 0.5 M EDTA pH 8.0.
as §3, §4, §5, §6, §7

T2 sequence (P49862 30-253): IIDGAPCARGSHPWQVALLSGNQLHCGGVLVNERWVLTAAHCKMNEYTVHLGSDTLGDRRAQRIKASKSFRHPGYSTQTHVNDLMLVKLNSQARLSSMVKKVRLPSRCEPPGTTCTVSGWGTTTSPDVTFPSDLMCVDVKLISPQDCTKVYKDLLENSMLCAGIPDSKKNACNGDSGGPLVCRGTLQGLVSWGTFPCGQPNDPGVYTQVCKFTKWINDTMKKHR

Structure (SMILES)	Initial rate of proteolytic activity ([1]; Conc 1 μM)	Initial rate of substrate hydrolysis ([1]; Conc 1 μM)	Initial rate of proteolytic activity ([1]; Conc 3.3 μM)	Initial rate of substrate hydrolysis ([1]; Conc 3.3 μM)	Rate in Skin Assay [1]	IC50 (Recombinant human KLK5) [nM]	IC50 (KLK7) [nM]
CS(=O)(=O)c1ccc(CO)cc1-c1nc2cc3c(cc2c(=O)o1)OCCO3 [Compound 1.002, 2-(5-(Hydroxymethyl)-2-(methylsulfonyl)phenyl)-7,8-dihydro-4H-[1,4]dioxino[2′,3′:4,5]benzo[1,2-d][1,3]oxazin-4-one]	0.1* Absorbance405/min	0.06* Absorbance405/min	0.09* Absorbance405/min	0.05* Absorbance405/min	0.009* Absorbance405/min	1570	220
CS(=O)(=O)c1ccccc1-c1nc2cc3c(cc2c(=O)o1)OCCO3 [Compound 14, reference compound]	0.13* Absorbance405/min	0.1* Absorbance405/min	0.11* Absorbance405/min	0.08* Absorbance405/min	0.14* Absorbance405/min	240	130
